Measured values: patent US20230321063A1, “COMPOSITIONS AND METHODS TO REDUCE NEUROINFLAMMATION” (Seattle Children's Hospital d/b/a Seattle Children's …, priority 2020, published 2023)
Entries after “also recorded” stand apart in the source; their conditions may differ.

Columns and labels:
Ndufs4(KO) mice [1] = assay: Body weight, growth and cachexia onset; assay type: in vivo, mouse
Protocol: Ndufs4(+/−) mice were bred to produce Ndufs4(KO) (Ndufs4(−/−)) offspring. Mice were weaned at 20-21 days of age. Ndufs4(KO) animals were housed with a minimum of one control littermate for warmth and stimulation. Mice were weighed, and health assessed, a minimum of 3 times per week, every other day (daily for IP injected mice, see herein). Where longitudinal blood point-of-care data was collected, this was performed during these health checks. Wetted chow in a dish on the bottom of each cage, and in-cage water bottles, were provided to all cages housing Ndufs4(KO) mice following the onset of disease so that the ability to find or reach food or water was not a limiting factor for survival.
Cachexia in FIG. 4H and FIG. 6E is the day of life when weight peaks prior to the progressive weight loss which occurs in untreated Ndufs4(KO) animals.

Ndufs4(KO) mice [2] = assay: Isoflurane induced hyperlactemia assay; assay type: in vivo, mouse; conditions: 0.4% isoflurane for 30 min, P50, 300 mg/kg/d
Protocol: Isoflurane induced hyperlactemia assays. All of these experiments were performed at P50. Mice were subject to normal daily monitoring (see survival studies) up until P50. At P50, baseline blood glucose, lactate, and […] (β-HB) levels were measured using point-of-care meters using the tail-prick method, as described. Mice were then immediately exposed to 0.4% isoflurane or carrier gas only (100% oxygen) for 30 min. At the 30 minutes, blood glucose, lactate, and β-HB were measured again.

Ndufs4(KO) mice [3] = assay: Minimum Alveolar Concentration (MAC) of isoflurane associated with anesthesia; assay type: in vivo, mouse; conditions: 300 mg/kg/day, P30 Ndufs4(KO) animals
Excerpt: In particular embodiments, effective amounts can be evidenced by reduced sensitivity to volatile anesthetics. Sensitivity to volatile anesthetics can be determined by measuring the minimum alveolar concentration (MAC). MAC provides a correlation between the dose of an anesthetic and immobility. (Lobo et al. (2020) StatPearls, World Wide Web at ncbi.nlm.nih.gov/books/NBK532974/). […] MAC can be expressed as volumes percent of alveolar (end-tidal) gas at one atmosphere pressure at sea level (i.e., 760 mm Hg). In particular embodiments, volatile anesthetics can include nitrous oxide, isoflurane, desflurane, halothane, and sevoflurane. Mice can be exposed to an anesthetic by using a vaporizer at a particular flow rate (e.g., 3-4 liters/min) through a humidifier in-line. […] In particular embodiments, sensitivity to volatile anesthetics can be reduced in a subject administered a composition including a therapeutically effective amount of an inhibitor of the disclosure, as compared to sensitivity to volatile anesthetics in the subject not administered the composition, as measured by a relevant test such as MAC.
To test whether leukocyte depletion might impact VA hypersensitivity, the Minimum Alveolar Concentration (MAC) of isoflurane associated with anesthesia in control and 300 mg/kg/day pexidartinib treated Ndufs4(KO) animals was assessed (see Experimental Methods in Example 1 for details). […]

[4] = tested on: control and Ndufs4(KO) mice; assay: Plasma ALT and AST enzymatic activity assays; assay type: in vivo, mouse; conditions: 300 mg/kg/day, both genotypes
Protocol: Plasma ALT and AST measures. Small volumes (5-10 μL) of blood were collected using tail-prick and heparinized microhematocrit tubes (Fisher Scientific cat. #22-362566), placed on ice in 15 mL sample tubes, then moved (by pipette) into 1.5 mL microcentrifuge tubes and stored at −80° C. until used for ALT and AST enzymatic assays. ALT and AST were quantified using colorimetric enzymatic activity assay kits (Sigma, cat. #'s MAK052 and MAK055, respectively) according to manufacturer recommendations. Absorbance was measured on a NanoDrop 1000 (ThermoScientific).

[5] = tested on: control and Ndufs4(KO) animals; assay: Observation of coat color under treatment; assay type: in vivo, mouse; conditions: higher doses (of 100, 200, 300 mg/kg/day) in chow
Protocol: To directly test this model, Ndufs4(KO) and control animals were treated with 100, 200, or 300 mg/kg/day pexidartinib in normal mouse chow (dosing is approximated based on food consumption, see Experimental Methods in Example 1).

[6] = cited from earlier work

## FC(F)(F)c1ccc(CNc2ccc(Cc3c[nH]c4ncc(Cl)cc34)cn2)cn1 [pexidartinib, 5-[(5-chloro-1H-pyrrolo[2,3-b]pyridin-3-yl)methyl]-N-[[6-(trifluoromethyl)pyridin-3-yl]methyl]pyridin-2-amine]
Ndufs4(KO) mice [1]
  cachexia: prevented
Ndufs4(KO) mice [2]
  blood lactate spike after isoflurane exposure: fully suppressed this lactate spike
Ndufs4(KO) mice [3]
  hypersensitivity to sedation by isoflurane (MAC): modest, but statistically significant, attenuation
[4]
  ALT level: significantly elevated
  AST level: significantly elevated
[5]
  coat/fur color: turns fur white; also recorded: change in mouse coat color
[5]; listed as Pexidartinib
  coat/fur color: caused animal fur to whiten
[6]; patients
  liver damage: known to cause liver damage
[6]; reports in humans
  hair color in humans: hair whitening in humans
